This note sets out measurements from PubChem BioAssay AID336 (DTP/NCI, 2004).

“And” between values parts separate entries of the source, which are not always exact repeats. Equal entries are not always repeated. Inconclusive results and toxic doses are left out.

For this test, the system named is BDF1 mice, P388/VCR leukemia ip, median survival T/C. The test is described as follows: NCI In Vivo Anticancer Drug Screen. Data for tumor model P388 Leukemia resistant to Vincristine; NSC 67574 (intraperitoneal) in B6D2F1 (BDF1) mice. Conditions: endpoint: median survival time, higher = longer survival. On the procedure:
The antitumor activity of compounds was measured in mice bearing transplantable tumors. Survival or tumor size were measured and the results are expressed as the measurement made in the treated group (T) divided by the measurement made in the vehicle treated control group (C). The tumor model used in this assay is P388 Leukemia resistant to Vincristine; NSC 67574 (intraperitoneal) in B6D2F1 (BDF1) mice

Where [1] appears, read: dose: 25.0 mg/kg/injection, schedule: Q01DX010 (ip), vehicle: saline.
Setting [2] is: dose: 40.0 mg/kg/injection, schedule: Q01DX010 (ip), vehicle: saline.
[3] abbreviates: dose: 12.5 mg/kg/injection, schedule: Q01DX010 (ip), vehicle: saline.
Setting [4] is: dose: 125.0 mg/kg/injection, schedule: Q01DX010 (ip), vehicle: saline.
The mark [5] stands for this setting: dose: 250.0 mg/kg/injection, schedule: Q01DX010 (ip), vehicle: saline.

On to `O=C(Nc1ccc(C2=NCCN2)cc1)c1ccc(C(=O)Nc2ccc(C3=NCCN3)cc2)c(NC(=O)c2ccc(C(=O)Nc3cc(C(=O)Nc4ccc(C5=NCCN5)cc4)ccc3C(=O)Nc3ccc(C4=NCCN4)cc3)cc2)c1`, for which the T/C under setting [1] is 109 % of control; the T/C (dose: 50.0 mg/kg/injection, schedule: Q01DX010 (ip), vehicle: saline) is 109 % of control; the T/C (dose: 100.0 mg/kg/injection, schedule: Q01DX010 (ip), vehicle: saline) was 104 % of control; the T/C (dose: 200.0 mg/kg/injection, schedule: Q01DX010 (ip), vehicle: saline) was 104 % of control.
In the case of `CC(CN1CC(=O)NC(=O)C1)N1CC(=O)NC(=O)C1` (stereo not given), the T/C (dose: 108.0 mg/kg/injection, schedule: Q04DX003 (ip), vehicle: Klucel (hydroxypropylcellulose) (HPC)) is 120 % of control; the T/C (dose: 240.0 mg/kg/injection, schedule: Q04DX003 (ip), vehicle: Klucel (hydroxypropylcellulose) (HPC)) is 151 % of control; the T/C (dose: 300.0 mg/kg/injection, schedule: Q04DX003 (ip), vehicle: alkali diluted with saline) was 174 % of control; the T/C (dose: 400.0 mg/kg/injection, schedule: Q04DX003 (ip), vehicle: Klucel (hydroxypropylcellulose) (HPC)) was 180 % of control; the T/C (dose: 500.0 mg/kg/injection, schedule: Q04DX003 (ip), vehicle: alkali diluted with saline) was 109 % of control.
For `O=C(Nc1cccc(NC(=O)Nc2cccc(C3=NCCN3)c2)c1)Nc1cccc(C2=NCCN2)c1`, the T/C was 154 % of control under setting [2] and 118 % of control (dose: 90.0 mg/kg/injection, schedule: Q01DX010 (ip), vehicle: saline).
As to `COS(C)(=O)=O`, the T/C is 123 % of control under setting [3] and 103 % of control under setting [1].
For `Nc1cc(C(=O)Nc2ccc(C3=NCCN3)cc2)cc(C(=O)Nc2ccc(C3=NCCN3)cc2)c1`, the T/C (dose: 32.0 mg/kg/injection, schedule: Q01DX010 (ip), vehicle: saline) was 156 % of control and the T/C (dose: 64.0 mg/kg/injection, schedule: Q01DX010 (ip), vehicle: saline) was 165 % of control.
In the case of `O=C[C@@H](CO)O[C@H](C=O)n1cnc2c(=O)[nH]cnc21`, the T/C is 210 % of control (dose: 180.0 mg/kg/injection, schedule: Q04DX003 (ip), vehicle: water) and 323 % of control (dose: 300.0 mg/kg/injection, schedule: Q04DX003 (ip), vehicle: water).
`O=P1(N(CCCl)CCCl)NCCCO1` (stereo not given): the T/C runs as follows: (dose: 144.0 mg/kg/injection, schedule: Q01DX001 (ip), vehicle: saline) 181 % of control; (dose: 240.0 mg/kg/injection, schedule: Q01DX001 (ip), vehicle: saline) 194 % of control.
`COC(=O)[C@@]12OC[C@]34[C@H]([C@@H](O)[C@@H]1O)[C@@]1(C)CC(=O)C(O)=C(C)[C@@H]1C[C@H]3OC(=O)[C@H](OC(=O)/C=C(\C)C(C)C)[C@@H]24`: the T/C (dose: 389.0 micrograms/kg/injection, schedule: Q01DX004 (ip), vehicle: saline + alcohol) was 103 % of control; the T/C (dose: 432.0 micrograms/kg/injection, schedule: Q01DX009 (ip), vehicle: saline + alcohol) is 98 % of control; the T/C (dose: 648.0 micrograms/kg/injection, schedule: Q01DX004 (ip), vehicle: saline + alcohol) is 109 % of control; the T/C (dose: 720.0 micrograms/kg/injection, schedule: Q01DX009 (ip), vehicle: saline + alcohol) is 100 % of control.
For `COc1cc(NS(C)(=O)=O)ccc1Nc1c2ccccc2nc2ccccc12`, the T/C is, setting by setting: (dose: 3.6 mg/kg/injection, schedule: Q04DX003 (ip), vehicle: clinical formulation) 188 % of control; (dose: 3.6 mg/kg/injection, schedule: Q04DX003 (ip), vehicle: other) 122 % of control; (dose: 6.0 mg/kg/injection, schedule: Q04DX003 (ip), vehicle: clinical formulation) 191 % of control; (dose: 10.0 mg/kg/injection, schedule: Q04DX003 (ip), vehicle: clinical formulation) 193 % of control; (dose: 10.0 mg/kg/injection, schedule: Q04DX003 (ip), vehicle: other) 153 % of control; (dose: 16.7 mg/kg/injection, schedule: Q04DX003 (ip), vehicle: clinical formulation) 107 % of control. Also, the T/C (dose: 16.7 mg/kg/injection, schedule: Q04DX003 (ip), vehicle: other) was 88 % of control.
Turning to `COc1cc2c[n+](C)c3c4cc5c(cc4ccc3c2cc1OC)OCO5`, the T/C was 106 % of control (dose: 43.2 mg/kg/injection, schedule: Q04DX003 (ip), vehicle: Klucel (hydroxypropylcellulose) (HPC)); 108 % of control (dose: 72.0 mg/kg/injection, schedule: Q04DX003 (ip), vehicle: Klucel (hydroxypropylcellulose) (HPC)); 106 % of control (dose: 120.0 mg/kg/injection, schedule: Q04DX003 (ip), vehicle: Klucel (hydroxypropylcellulose) (HPC)); 109 % of control (dose: 200.0 mg/kg/injection, schedule: Q04DX003 (ip), vehicle: Klucel (hydroxypropylcellulose) (HPC)).
Take `CCOC(=O)NP(=O)(N1CC1(C)C)N1CC1(C)C` (stereo not given): the T/C (dose: 31.3 mg/kg/injection, schedule: Q01DX010 (ip), vehicle: saline) is 117 % of control; the T/C under setting [4] is 185 % of control; the T/C under setting [5] is 246 % of control.
In the case of `C[n+]1ccc(NC(=O)c2ccc(NC(=O)c3cccc(C(=O)Nc4ccc(C(=O)Nc5cc[n+](C)cc5)cc4)c3)cc2)cc1`, the T/C is, setting by setting: (dose: 5.0 mg/kg/injection, schedule: Q01DX010 (ip), vehicle: saline) 100 % of control; (dose: 10.0 mg/kg/injection, schedule: Q01DX010 (ip), vehicle: saline) 107 % of control; under setting [2], 166 % of control.
Take `CN=C(NC)c1ccc(NC(=O)c2ccc(C(=O)Nc3ccc(C(=NC)NC)cc3)c(Cl)c2)cc1`: the T/C runs as follows: (dose: 18.0 mg/kg/injection, schedule: Q01DX010 (ip), vehicle: saline) 117 % of control; (dose: 27.0 mg/kg/injection, schedule: Q01DX010 (ip), vehicle: saline) 95 % of control.
In the case of `CS(=O)(=O)OCCCl`, the T/C was 95 % of control and 100 % of control (dose: 37.5 mg/kg/injection, schedule: Q01DX010 (ip), vehicle: saline); 95 % of control and 100 % of control (dose: 75.0 mg/kg/injection, schedule: Q01DX010 (ip), vehicle: saline).
Turning to `O=CCC(O)C(O)C(O)CO` (stereo not given), the T/C under setting [4] is 88 % of control; the T/C under setting [5] was 88 % of control and 92 % of control; the T/C (dose: 500.0 mg/kg/injection, schedule: Q01DX010 (ip), vehicle: saline) was 92 % of control and 100 % of control.
As for `COc1cc([C@@H]2c3cc4c(cc3[C@@H](OC3OC5CO[C@@H](c6cccs6)OC5C(O)C3O)[C@H]3COC(=O)[C@H]23)OCO4)cc(OC)c1O` (stereo not given in full), the T/C is 153 % of control (dose: 5.4 mg/kg/injection, schedule: Q04DX003 (ip), vehicle: clinical formulation) and 172 % of control (dose: 15.0 mg/kg/injection, schedule: Q04DX003 (ip), vehicle: clinical formulation).
As to `O=NN(CCCl)C(=O)NCCCl`, the T/C was 300 % of control (dose: 6.25 mg/kg/injection, schedule: Q01DX010 (ip), vehicle: saline); 188 % of control and 300 % of control under setting [3]; 151 % of control (dose: 13.0 mg/kg/injection, schedule: Q01DX001 (ip), vehicle: saline); 164 % of control (dose: 21.6 mg/kg/injection, schedule: Q01DX001 (ip), vehicle: saline); 212 % of control (dose: 36.0 mg/kg/injection, schedule: Q01DX001 (ip), vehicle: saline).
Consider `O=C(Nc1ccc(C2=NCCN2)cc1)c1cc(Cl)cc(C(=O)Nc2ccc(C3=NCCN3)cc2)c1`, for which the T/C is 100 % of control (dose: 140.0 mg/kg/injection, schedule: Q01DX010 (ip), vehicle: saline); 109 % of control (dose: 210.0 mg/kg/injection, schedule: Q01DX010 (ip), vehicle: saline); 100 % of control (dose: 315.0 mg/kg/injection, schedule: Q01DX010 (ip), vehicle: saline).
Take `O=C(Nc1ccc(C2=NCCN2)cc1)c1ccc(C(=O)Nc2ccc(C3=NCCN3)cc2)cc1`: the T/C is 156 % of control (dose: 112.0 mg/kg/injection, schedule: Q01DX010 (ip), vehicle: saline); 173 % of control (dose: 167.0 mg/kg/injection, schedule: Q01DX010 (ip), vehicle: saline); 178 % of control under setting [5].
